We go through three compounds from patent US20240299591A1, “Antimicrobial Peptides and Their Use” (priority 2021, published 2024).

“Also recorded” adds a separate entry of the source. Where a SMILES comes first, the peptide text is derived from it. [ ]: non-standard residue; d: D form. The star is where a group is joined. X1 = CN1/C(=C/C=C(/C=C/C2=[N+](C)c3ccccc3C2(C)C)c2ccc(C(=O)*)cn2)C(C)(C)c2ccccc21

For one data set, the system named is Fusarium species. Particulars: clinical isolates (Arikan et al., 2001); cited from earlier work.
For the next data set, the system named is Aspergillus species. Particulars: cited from earlier work.
A further data set relates to rabbit eye. The experiment in a line: Tolerability study on rabbit eyes in vivo. The following applies: 10 µM, 50 µL into the right eye, three rabbits, observed 7 days. The method, then:
Three rabbits (rabbits 1, 2 and 3) were tested. All rabbits appeared unaffected immediately post-treatment and through the next 7 days with no signs of irritation and no change in general condition. MFIGAF001a was used at 10 µM and 50 µL and was admitted into the right eye of the rabbits.

Data set [1] concerns C. albicans, F. oxysporum, A. fumigatus, and C. neoformans. Nature of the data set: Live cell imaging, fluorescent labelling of pathogenic fungi. Details: dose or concentration left out as unconfirmed. Particulars: 15 min incubation at 37° C. in RPMI. In kind it is cell-based. The method, then:
The N. crassa mat A WT used for confocal live-cell imaging was grown on 100% Vogel's agar medium at 25° C. for 3-5 days before the spores were harvested. The A. fumigatus CEA10 strain used for confocal live-cell imaging was grown on 100% Vogel's medium at 37° C. for 4-5 days before the spores were harvested. Before the confocal experiments were performed, N. crassa spores were incubated in eight-well slide culture chambers for 3 h at 25° C. in liquid 10% Vogel's medium and A. fumigatus spores were incubated for 16 h at 25° C. in liquid 10% Vogel's medium in order to allow germination to fully take place for imaging.
Live-cell imaging of germinated fungi spores was performed using a Leica TCS SP8 confocal laser scanning microscope equipped with photo multiplier tubes (PMT), hybrid GaAsP (HyD) detectors and a 63× water immersion objective. A Leica turntable white light laser (WLL, 450-750 nm), argon laser (458 nm, 476 nm, 488 nm and 496 nm) and UV laser (405 nm) were used for fluorescence excitation.
The major pathogenic fungi include C. albicans, F. oxysporum, A. fumigatus, and C. neoformans.

Data set [2] relates to A. fumigatus. The experiment in a line: Live cell imaging in pig corneal infection model. Particulars: 15 min incubation at 37° C. Details: species or system Aspergillus fumigatus; dose or concentration left out as unconfirmed. The method, then: MFIGAF001a in a pig corneal infection model was investigated (FIG. 12).
Porcine corneal was infected with A. fumigatus using the same method described above (Biological Example 8). After confirming the success of infection, 1 drop of MFIGAF001 solution in water (2.5 μM) was added topically to the corneal surface and incubated for 15 min at 37° C. before confocal microscopy.

Another data set relates to Fusarium oxysporum. In kind it is cell-based. The following applies: Conidia (10% Vogel's), 35° C., 24 h. The method, then:
Dose dependent inhibition of fungal growth by all non-labelled peptides (indicated by IC50 values) was determined via this methodology. The assays were performed using Nunc 262162 U96 polystyrene round bottomed clear plates (www.nuncbrand.com).
(§1) When testing the peptides against A. fumigatus, peptides at different concentrations were mixed with A. fumigatus conidia to reach a final volume of 100 μL per well. The final conidial concentration was 5×10^5 cells/mL in 10% Vogel's medium. After 24 h of incubation at 37° C. in 96 well plates, fungal growth with the different peptide concentrations was determined by measurement of the optical density at 610 nm in a TriStar LB 941 Multimode Microplate Reader. The IC50 values were determined using four parameter logistic regression formula provided by Sigma Plot 10.0. Values are represented as means±SEM from two independent experiments (n=3).
When testing the peptides against N. crassa and F. oxysporum, experiments were carried as described above apart from the incubation temperature was changed to 25° C. for N. crassa and 35° C. for F. oxysporum.
(§2) The IC50 of the fluorescently labelled peptides cannot be accurately determined using the optical density method described in the last section. This is because the fluorophore structures absorbed light at 610 nm which was the wavelength used for the optical density measurements. In order to overcome this, the BacTiter-Glo™ Microbial Cell Viability Assay kit purchased from Promega was used. The BacTiter-Glo™ Reagent relies on the properties of a proprietary thermostable luciferase (Ultra-Glo™ Recombinant Luciferase) and a proprietary formulation for extracting ATP from fungal cells which will generates a ‘glow-type’ luminescent signal. This is produced by the luciferase reaction shown in Scheme 1, which has a signal half-life of over 30 min depending on the experimental conditions. The luminescent signal is proportional to the amount of ATP present, which is directly proportional to the number of living cells in culture.
(§3) The IC50 assays for all fluorescently labelled peptides were performed using Greiner CELLSTAR white polystyrene wells flat bottomed 96 well plates. The incubation conditions remained the same for the optical density measurement described in the previous section. Once the incubation procedure was finished, the plate was equilibrated to room temperature. A mixture of BacTiter-Glo™ buffer and substrate was then added to the plate (100 μL per well). The plate was shaken for 5 min and read using the Tristar […] luminometer. Data analysis was performed using Sigma Plot 10.0. All values shown are presented as means±SEM from two independent experiments (n=3).

The subject of data set [3] is Human Red Blood Cells (HRBCs). The experiment in a line: Haemolytic activity in human red blood cells. Particulars: 10 μM, 37° C., 1 h. The method, then:
Molecules, DMSO (as positive control) and PBS (as negative control) were incubated with human RBCs at 37° C. and their viability was assessed after 1 h.
Erythrocytes were isolated from freshly drawn, anticoagulated human blood and diluted in PBS (1:5). An amount of 50 μl of erythrocyte suspension was added to 50 μl of compounds at 10 µM. DMSO was used as positive control and PBS as negative control. The plate was incubated at 37° C. for 1 h, each well was diluted with 150 μl of PBS and the plate was centrifuged at 1,200 g for 15 min. A total of 100 μl of the supernatant from each well was transferred to a fresh plate, and the absorbance at 350 nm was measured in a microplate reader. Data is represented as % of cell viability as means from three independent experiments with n=3.

Data set [4] has as its system Aspergillus fumigatus. In kind it is cell-based. The following applies: Conidia (10% Vogel's), 37° C., 24 h. The method, then: The assays were performed using Nunc 262162 U96 polystyrene round bottomed clear plates (www.nuncbrand.com).
as §1, §2, §3

Data set [5] deals with A. fumigatus and S. aureus. Nature of the data set: Live cell imaging in pig corneal infection model co-infected by A. fumigatus and S. aureus. Particulars: 2.5 μM, 15 min incubation at 37° C., co-infected 48 h. From the text: The labelled compound can be used to distinguish fungus from S. aureus when using confocal microscopy based on assessing the morphology of the areas of fluorescence. The fungal hyphea can be observed and identified based on its characteristic filamentous shape, and its much larger size compared to the bacteria which appears to be much smaller and having a dotted shape.

Data set [6] can be described thus: Viability of reconstructed cornea-like epithelium (eye irritation model). In kind it is cell-based. The following applies: human, reconstructed cornea-like epithelium (RhCE, EpiOcular™); 10 μM; read-out: Mean of Viabilities (%). The method, then:
(§4) FIG. 4a is a graph of the viability reconstructed cornea-like epithelium (RhCE, EpiOcular™) after incubation with MFIGA001. NC=Negative Control; PC=Positive Control. FIG. 4b is a graph of the viability reconstructed cornea-like epithelium (RhCE, EpiOcular™) after incubation with 10 µM of MFIGA001a and MFIGAF001b. NC=Negative Control; PC=Positive Control; A2=MFIGAF001a; and B1=MFIGAF001b.
(§5) MFIGAF001 was also assessed independently by a CRO (Evotec) in an OECD compliant reconstructed cornea-like epithelial cell model (RhCE, EpiOcular™).

Data set [7] relates to reconstructed cornea-like epithelium (RhCE, EpiOcular™). The description is as above. It counts as cell-based. The following applies: RhCE, EpiOcular™. The method, then: as §4, §5
Another data set has as its system P. aeruginosa. The experiment in a line: Live cell imaging with P. aeruginosa. It counts as cell-based. Particulars: 2.5 μM, 37° C. in RPMI, 1 h.
In data set [8] the test system is A. fumigatus. The experiment in a line: Live cell imaging of A. fumigatus in co-cultures with A549. It counts as cell-based, Aspergillus fumigatus. Particulars: 2.5 µM, 10 min after addition, 37° C. in RPMI.
A further data set relates to S. aureus. Nature of the data set: Live cell imaging with S. aureus. In kind it is cell-based, Staphylococcus aureus. Particulars: 2.5 µM, 20 min incubation at 37° C. in RPMI. From the text: MFIGAF001a labels gram positive bacteria Staphylococcus aureus. (FIG. 14).
The test system of data set [9] is Aspergillus fumigatus. In kind it is cell-based. The following applies: Conidia (RPMI), 37° C., 24 h.

`CC[C@H](C)C[C@H](C)CCCCCCCCC(=O)N[C@H]1C[C@@H](O)[C@@H](NCCN)NC(=O)[C@@H]2[C@@H](O)CCN2C(=O)[C@H]([C@H](O)CCN)NC(=O)[C@H]([C@H](O)[C@@H](O)c2ccc(O)cc2)NC(=O)[C@@H]2C[C@@H](O)CN2C(=O)[C@H]([C@@H](C)O)NC1=O` [Caspofungin]: in the data set with Fusarium species, the “Activity against Fusarium species (MIC testing)” value is given as “not particularly active”. Besides, the “MICs against Aspergillus clinical isolates” value in the data set with Aspergillus species is reported as “moderate MICs”.
For `CN1/C(=C/C=C(/C=C/C2=[N+](C)c3ccccc3C2(C)C)c2ccc(C(=O)NCCCC[C@@H]3NC(=O)[C@H](Cc4c[nH]c5ccccc45)NC(=O)[C@H](Cc4ccccc4)NC(=O)[C@H](Cc4c[nH]c5ccccc45)NC(=O)[C@@H](Cc4ccccc4)NC(=O)[C@H](CCCCN)NC(=O)[C@H](CCCCN)NC(=O)[C@H](CCCNC(=N)N)NC(=O)CNC3=O)cn2)C(C)(C)c2ccccc21` [MFIGAF001a, Cyclo(Arg-Lys-Lys-phe-Trp-Phe-Trp-Lys(Cy5)-Gly)] (cyclo(FWK(X1)GRKK[dF]W)), the “Tolerability / eye irritation in rabbit eye” value in the data set with rabbit eye is reported as “no eye irritation; also recorded: well tolerated”. For the same compound, the “Fluorescent labelling of pathogenic fungi” value in data set [1] is “label all major pathogenic fungi that cause fungal keratitis; also recorded: rapid and highly fluorogenic labelling”. Besides, the “Selective labelling of A. fumigatus over porcine corneal tissue” value with A. fumigatus [2] is reported as “selectively labelled A. fumigatus”. Further, the “IC50 Fusarium oxysporum” value in the data set on Fusarium oxysporum stood at 1.5 µg/mL. Also, in data set [3], the “Haemolytic activity against HRBCs” value is “no haemolytic activity”. Moreover, in the data set on Aspergillus fumigatus [4], the “IC50 Aspergillus fumigatus” value came to 1.3 µg/mL. Further, the “Differentiation of fungus from S. aureus by morphology of fluorescence” value in data set [5] is “can be used to differentiate fungal keratitis and gram positive bacterial keratitis”. For the same compound, the viability at 10 µM in data set [6] turned out to be 98%. Also, the “Toxicity, reconstructed cornea-like epithelium (FIG. 4)” value in data set [7] is listed as “no obvious toxicity”. The “Selectivity over gram negative bacteria Pseudomonas (labelling)” value in the data set on P. aeruginosa was “great selectivity”. In the data set with A. fumigatus [8], the “Selective labelling of A. fumigatus over A549” value was “selectively labels A. fumigatus over A549 cell”. In addition, in the data set on S. aureus, the “Labelling of gram positive bacteria Staphylococcus aureus” value is reported as “labels”.
Take `C[C@@H]1C/C=C/C=C/C=C/C=C/[C@H](O[C@@H]2O[C@H](C)[C@@H](O)[C@H](N)[C@@H]2O)C[C@@H]2O[C@](O)(C[C@@H](O)C[C@H]3O[C@@H]3/C=C/C(=O)O1)C[C@H](O)[C@H]2C(=O)O` [Natamycin]: the “IC99 Aspergillus fumigatus” value in the data set with Aspergillus fumigatus [9] is reported as 39 mg/L.
